Experimental data taken from patent US20090087845A1, “Genetic Markers Of True Low Birth Weight” (priority 2005, published 2009).
Values joined by “and” are separate entries in the source; they are usually repeats but may differ in a detail not shown here. Equal entries are not always repeated.

Test system: placental gene expression
Assay: Placental gene expression (Affymetrix Rat Genome Chip 230.2) after SSRI (fluoxetine) exposure throughout gestation
Assay type: in vivo
Procedure: Gene expression data from pregnant rats under different forms of dietary restriction was gathered. […] (N=8) • Group 2 (CR50): Rats Given 50% of their Normal Daily Intake of Food. (N=5) • Group 3 (CR70): Rats Given 70% of their Normal Daily Intake of Food. […] (N=6) Placentas from the rats of each Group were harvested on Day 21 of gestation. RNA was extracted and gene expression was measured based on hybridization of RNA to Affymetrix Rat Genome Chips™ (230.2) (Affymetrix, Santa Clara, Calif.).
In order to determine whether placental gene expression profiling can be used to identify other prenatal exposures such as toxicants and drugs, a group of rats with drug exposure was monitored as described above. […] As with control, CR50, CR70, and HF groups, placentas from the mothers were sampled after 21 days of gestation and gene expression monitored utilizing an Affymetrix Rat Genome Chip.

[1] = rat placenta, day 21 of gestation, individual animals of SSRI group

Structure (SMILES): CNCCC(Oc1ccc(C(F)(F)F)cc1)c1ccccc1 (stereo not shown) [fluoxetine, Fluoxetine]
- expression, probeset 1391042_at (placenta, SSRI-exposed samples): 7.197 and 7.167 and 6.844 and 6.389 and 6.757 and 6.835
- expression, probeset 1391078_at (placenta, SSRI-exposed samples): 9.617 and 9.614 and 9.751 and 9.434 and 10.05 and 9.264
- expression, probeset 1391376_at (placenta, SSRI-exposed samples): 7.297 and 7.473 and 6.881 and 6.738 and 6.838 and 6.654
- expression, probeset 1391555_at (placenta, SSRI-exposed samples): 7.012 and 7.728 and 6.644 and 6.541 and 6.178 and 6.968
- expression, probeset 1391709_at (placenta, SSRI-exposed samples): 4.661 and 4.684 and 4.722 and 4.806 and 4.713 and 4.47
- expression, probeset 1392028_at (placenta, SSRI-exposed samples): 6.162 and 6.747 and 6.346 and 6.242 and 6.323 and 6.159
- expression, probeset 1392231_at (placenta, SSRI-exposed samples): 6.879 and 7.148 and 7.615 and 7.767 and 7.913 and 7.35
- expression, probeset 1392936_at (placenta, SSRI-exposed samples): 8.882 and 8.406 and 9.262 and 8.975 and 9.393 and 8.807
- expression, probeset 1392950_at (placenta, SSRI-exposed samples): 3.949 and 4.094 and 3.999 and 4.085 and 4.164 and 3.919
- expression, probeset 1393104_at (placenta, SSRI-exposed samples): 5.321 and 5.704 and 5.504 and 5.333 and 5.921 and 5.58
- expression, probeset 1393266_at (placenta, SSRI-exposed samples): 4.99 and 5.174 and 4.982 and 4.609 and 4.824 and 4.636
- expression, probeset 1393517_at (placenta, SSRI-exposed samples): 6.631 and 6.746 and 6.287 and 6.483 and 6.515 and 6.633
- expression, probeset 1393539_at (placenta, SSRI-exposed samples): 6.157 and 5.169 and 4.952 and 5.172 and 5.083 and 5.053
- expression, probeset 1393580_at (placenta, SSRI-exposed samples): 5.687 and 6.03 and 5.819 and 5.753 and 6.108 and 5.967
- expression, probeset 1393752_at (placenta, SSRI-exposed samples): 6.208 and 6.548 and 6.148 and 6.455 and 6.651 and 6.417
- expression, probeset 1393798_at (placenta, SSRI-exposed samples): 3.547 and 3.62 and 3.802 and 3.629 and 3.836 and 3.782
- expression, probeset 1393853_at (placenta, SSRI-exposed samples): 5.346 and 5.933 and 5.865 and 5.835 and 5.821 and 5.912
- expression, probeset 1393939_at (placenta, SSRI-exposed samples): 4.71 and 4.865 and 4.742 and 4.586 and 4.592 and 4.507
- expression, probeset 1393989_at (placenta, SSRI-exposed samples): 5.99 and 6.475 and 6.07 and 6.001 and 6.425 and 6.268
- expression, probeset 1394361_a_at (placenta, SSRI-exposed samples): 4.204 and 4.507 and 4.247 and 4.097 and 4.402 and 4.275
- expression, probeset 1394414_at (placenta, SSRI-exposed samples): 9.565 and 9.667 and 9.428 and 9.394 and 9.769 and 9.655
- expression, probeset 1394498_at (placenta, SSRI-exposed samples): 5.626 and 5.476 and 5.778 and 5.78 and 5.589 and 5.688
- expression, probeset 1394762_at (placenta, SSRI-exposed samples): 3.748 and 3.837 and 3.727 and 3.741 and 3.941 and 3.853
- expression, probeset 1394790_at (placenta, SSRI-exposed samples): 6.185 and 6.363 and 6.208 and 6.069 and 6.016 and 6.008
- expression, probeset 1395303_at (placenta, SSRI-exposed samples): 3.284 and 3.242 and 3.289 and 3.3 and 3.261 and 3.274
- expression, probeset 1395316_at (placenta, SSRI-exposed samples): 6.786 and 6.744 and 6.399 and 5.525 and 5.977 and 6.48
- expression, probeset 1395875_at (placenta, SSRI-exposed samples): 7.411 and 7.212 and 7.607 and 7.667 and 7.918 and 7.66
- expression, probeset 1395951_at (placenta, SSRI-exposed samples): 4.46 and 4.582 and 4.341 and 4.395 and 4.516 and 4.568
- expression, probeset 1395970_at (placenta, SSRI-exposed samples): 4.781 and 4.846 and 4.597 and 4.342 and 4.707 and 4.733
- expression, probeset 1396104_at (placenta, SSRI-exposed samples): 5.464 and 5.416 and 5.468 and 5.564 and 5.567 and 5.601
- expression, probeset 1396326_at (placenta, SSRI-exposed samples): 5.928 and 5.926 (2×) and 5.857 and 6.008 and 5.802
- expression, probeset 1397116_at (placenta, SSRI-exposed samples): 3.723 and 3.556 and 3.711 and 3.773 and 3.705 and 3.589
- expression, probeset 1397187_at (placenta, SSRI-exposed samples): 5.847 and 6.088 and 6.024 and 5.915 and 5.91 and 5.886
- expression, probeset 1397500_x_at (placenta, SSRI-exposed samples): 6.721 and 7.079 and 6.818 and 6.587 and 6.983 and 6.477
- expression, probeset 1397676_at (placenta, SSRI-exposed samples): 6.024 and 6.128 and 5.935 and 6.174 and 6.311 and 5.898
- expression, probeset 1397738_at (placenta, SSRI-exposed samples): 4.159 and 4.154 and 4.198 and 4.197 and 4.131 and 4.271
- expression, probeset 1397834_at (placenta, SSRI-exposed samples): 6.223 and 6.44 and 5.752 and 5.565 and 5.81 and 5.978
- expression, probeset 1397911_at (placenta, SSRI-exposed samples): 5.777 and 6.103 and 5.669 and 5.522 and 5.664 and 5.597
- expression, probeset 1397956_at (placenta, SSRI-exposed samples): 5.497 and 5.765 and 4.575 and 4.745 and 5.255 and 5.147
- expression, probeset 1398025_at (placenta, SSRI-exposed samples): 6.981 and 7.045 and 6.561 and 6.889 and 6.773 and 6.868
- expression, probeset 1398196_at (placenta, SSRI-exposed samples): 5.275 and 5.259 and 5.614 and 5.101 and 5.599 and 5.566
- expression, probeset 1398208_s_at (placenta, SSRI-exposed samples): 6.67 and 6.822 and 6.248 and 6.32 and 5.983 and 6.359
- expression, probeset 1398571_x_at (placenta, SSRI-exposed samples): 5.476 and 5.783 and 5.339 and 5.581 and 5.638 and 5.597
- number of probe sets whose expression was altered by exposure (rat placenta, day 21 of gestation, approximately 10 mg/kg/day in drinking water throughout pregnancy, vs control): 281 probe sets
- Log base 2 expression for G6 (probe set 1369132, solute carrier 18, member 2) [1]: 8.97 log base 2 and 9.76 log base 2 and 8.56 log base 2 and 8.71 log base 2 and 8.41 log base 2 and 9.1 log base 2
- Log base 2 expression for G7 (probe set 1368474, vascular adhesion molecule 1) [1]: 5.83 log base 2 and 6.83 log base 2 and 5.81 log base 2 and 5.78 log base 2 and 6.05 log base 2
- Log base 2 expression for G8 (probe set 1388116, collagen type 1 alpha) [1]: 8.34 log base 2 and 8.25 log base 2 and 7.56 log base 2 and 7.7 log base 2 and 7.57 log base 2 and 7.69 log base 2
- Log base 2 expression for G9 (probe set 1368558, allograft inflammatory factor 1) [1]: 5.07 log base 2 and 5.61 log base 2 and 6.11 log base 2 and 5.3 log base 2 and 5.39 log base 2
- Log base 2 expression for G10 (probe set 1387796, arachidonate 12 lipoxygenase) [1]: 7.19 log base 2 and 8.37 log base 2 and 8.23 log base 2 and 6.76 log base 2 and 8.03 log base 2
